The numbers were not newly measured in patent US12280046B2, “Melanocortin subtype-2 receptor (MC2R) antagonist for the treatment of disease” (Crinetics Pharmaceuticals, Inc., priority 2021, dated 2025), which cites them from elsewhere.

Molecules are shown by their SMILES. Starred links: 1 amine or outer side, 2 acyl side, 3 side chain; linkers in the order of their positions; H or OH if unused. Non-standard residues stand in square brackets, D forms with d. Residues, ends and D or L forms follow the SMILES beside them. Groups on a side chain read outwards from the residue. *: point of attachment. Ethylenediamine = C(CN[*:2])N[*:1]; Hyp = O=C(O)[C@@H]1C[C@@H](O)CN1; Phg = N[C@H](C(=O)O)c1ccccc1; CO = O=C([*:1])[*:2]; Bn = c1ccc(C*)cc1

Usually half-life stands for the time needed for the level to fall by half in the phase considered.

The conditions of series [1]: assumption for full suppression curve; cited from earlier work.
The conditions of series [2]: Phase 3 trial; cited from earlier work.

Consider `C[C@]12CCC(=O)C=C1CC[C@@H]1[C@@H]2[C@@H](O)C[C@@]2(C)[C@H]1CC[C@]2(O)C(=O)CO` [cortisol], for which the half-life in series [1] was 1.1 ± 0.3 h.

With `NCCCC[C@@H]1NC(=O)[C@@H](Cc2c[nH]c3ccccc23)NC(=O)[C@H](c2ccccc2)NC(=O)[C@@H]2C[C@@H](OC(=O)NCCN)CN2C(=O)[C@H](Cc2ccccc2)NC(=O)[C@H](Cc2ccc(OCc3ccccc3)cc2)NC1=O` [pasireotide] (cyclo([Hyp]([CO-Ethylenediamine])[Phg][dW]KY(Bn)F)), in series [2], the “patients achieving normalization of urinary free cortisol” value is on record as 15-26% and the “patients with a hyperglycemia-related adverse event” value is 73%.
